Data published in US12521435B2, “Photodynamic therapy composition” (CASE WESTERN RESERVE UNIVERSITY, priority 2020, dated 2026).

Key:
PC3pip tumors [1] = test: In vivo tumor targeting and intratumor Pc158 release (Maestro fluorescence imaging); set-up: species or system athymic nude mice; details: E64 intratumorally injected before AuNPs-Pc158 administration
Procedure: All animal procedures were performed according to Institutional Animal Care and Use Committee (JACUA)-approved protocols (2015-0033). Four- to five-week-old male athymic nude mice were subcutaneously implanted with PC3pip or PC3flu cells (100 μL, cells suspended in PBS/matrigel at 1×10^7 cells/mL) on the right and left flanks, respectively. When the tumors grew to a sufficient size, AuNPs-Pc158 conjugations were intravenously injected via the tail vein with a Pc158 dose of 0.1 mg/kg. The mice were preimaged before, and at 0.5 h, 1 h, 4 h, 8 h, 24 h, 48 h, 72 h, 96 h, and 120 h after NPs injection using the Maestro In vivo Imaging System (PerkinElmer) to monitor the delivery and release of Pc158. Multispectral images were unmixed into their component spectra (Pc158 autofluorescence and background). Component images were used to quantitatively determine the average Pc158 fluorescence intensity of the PC3pip and PC3flu tumors. Tumor tissues at 24 h postinjection were also collected, cut, and imaged to see the Pc158 distribution (details in the histology analysis section).

PC3pip cells = test: In vitro PDT, CCK8 assay; type: cell-based; details: E64 added to block the cleavage
Procedure: In vitro PDT was evaluated by CCK8 assay. PC3pip and PC3flu cells were seeded in 96-well plates at 1×10^4 cells/well. […] The 96-well plate was irradiated (Appolo Horizon projector, Acco Brands) with radiant exposure at 1 J/cm^2, after which the cells were incubated overnight. After incubation, CCK8 agent (DojinDo Laboratories) was added to each well (10 μL/well) and incubated for 3 h at 37° C., and absorbance at 450 nm was measured for each well.

PC3pip tumors [2] = test: Multiple sequential PDT of tumors around 500 mm^3; type: in vivo, athymic nude mice; details: E64 intratumorally injected after bleaching; following 48 h (Day 2 and Day 3)
Procedure: Tumor size and mouse body weight was monitored every other day for a 30 day period. […] PDT was performed at 24 h, 2 days, and 3 days post-injection. Fluorescence before and after each PDT was monitored with Maestro, and intensity was quantified. One group of mice that received AuNPs-Pc158 were intratumorally injected with cathepsin inhibitor E64 after the first PDT exposure. After PDT, tumor size and mice body weight were monitored over 24 days.

[3] = tested on: PSMA-positive PC3pip cells; test: In vitro targeting and intracellular Pc158 release (confocal microscopy); type: cell-based; details: E64 added prior to coincubation with AuNPs
Procedure: Retrovirally transformed PSMA-positive PC3pip cells and transfection control PSMA-negative PC3flu cells were incubated for specific uptake and intracellular release studies. Both PC3pip and PC3flu cells were cultured in RPMI1640 medium (Invitrogen Life Technology) with 2 mmol/L L-glutamine, 10% FBS at 37° C., and 5% CO2. PC3pip and PC3flu cells were seeded in μ-Slide 8-Well Chamber Slide (ibidi) at 2000 cells/well. When the cells grew to 70% confluence, AuNPs-Pc158 conjugations were added at a Pc158 concentration of 1 μmol/L and coincubated for 1 h, 6 h, and 24 h. Then the cells were washed with PBS and stained with DAPI, LysoOrange, and MitoGreen (all from abcam) for 30 min at 37° C. and 5% CO2, after which they were washed again with PBS and replete medium added. The release of Pc158 and localization of nuclei, lysosomes, and mitochondria was observed under a Leica HyVolution SP8 confocal microscope (Leica Microsystem Inc.).

SMILES: CC(C)C[C@H](NC(=O)[C@H]1O[C@@H]1C(=O)O)C(=O)NCCCCN=C(N)N [E64]
- Pc158 fluorescence in PC3pip tumors (PC3pip tumors [1]): no Pc158 fluorescence was measurable
- release of free Pc158 and PDT with AuNPs-Pc158 (PC3pip cells): significantly hindered
- Pc158 fluorescence in the tumor after first PDT (PC3pip tumors [2]): fluorescence inhibition
- process of free Pc158 generation from AuNPs-Pc158 in cells [3]: could be blocked
